Data published in ChEMBL document CHEMBL6074681, “High potency 3-carboxy-2-methylbenzofuran pendrin inhibitors as novel diuretics” (Eur J Med Chem, 2025).
Blank lines part the entries; values can stand above or below the compound they belong to. Calls of active or inactive are those of the source. The calls are words filed in the database; no cut-off is given here.

Columns and labels:
[1] = target: T1, Pendrin (Homo sapiens) (UniProt O43511); assay: Potency index, ratio of PDSinh-A01 IC50 to test compound IC50 for Pendrin (unknown origin) transfected in rat FRT cells assessed as reduction in Cl-/I- ions exchange by YFP fluorescence quenching assay; assay type: cell-based
T1 sequence (whole entry): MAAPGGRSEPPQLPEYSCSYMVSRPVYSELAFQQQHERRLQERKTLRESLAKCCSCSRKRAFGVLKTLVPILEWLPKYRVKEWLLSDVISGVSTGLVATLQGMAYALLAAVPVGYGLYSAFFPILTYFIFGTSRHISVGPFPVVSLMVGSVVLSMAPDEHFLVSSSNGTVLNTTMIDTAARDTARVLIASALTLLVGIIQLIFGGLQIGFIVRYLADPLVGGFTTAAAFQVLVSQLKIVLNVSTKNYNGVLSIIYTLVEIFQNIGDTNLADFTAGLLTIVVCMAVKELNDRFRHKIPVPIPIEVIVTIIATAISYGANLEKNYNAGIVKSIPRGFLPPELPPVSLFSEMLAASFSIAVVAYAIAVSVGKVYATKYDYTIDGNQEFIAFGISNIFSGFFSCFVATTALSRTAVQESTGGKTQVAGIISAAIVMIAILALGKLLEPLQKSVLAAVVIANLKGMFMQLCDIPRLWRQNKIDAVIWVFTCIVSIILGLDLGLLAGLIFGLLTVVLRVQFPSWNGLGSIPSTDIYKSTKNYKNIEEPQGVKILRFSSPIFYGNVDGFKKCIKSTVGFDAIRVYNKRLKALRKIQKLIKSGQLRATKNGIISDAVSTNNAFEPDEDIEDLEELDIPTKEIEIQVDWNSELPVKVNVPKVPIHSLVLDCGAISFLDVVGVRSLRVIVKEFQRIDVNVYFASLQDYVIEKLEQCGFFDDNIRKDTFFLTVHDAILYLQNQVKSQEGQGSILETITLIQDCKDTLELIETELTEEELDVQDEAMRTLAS

[2] = target: T2, Pendrin (Homo sapiens, UniProt O43511); assay: Inhibition of Pendrin (unknown origin) transfected in rat FRT cells assessed as reduction in Cl-/I- ions exchange by YFP fluorescence quenching assay; assay type: cell-based
T2 sequence (O43511 whole entry): T1 sequence (whole entry)

[3] = target: T2, Pendrin; assay: Inhibition of Pendrin (unknown origin)
[4] = target: Cystic fibrosis transmembrane conductance regulator (Homo sapiens) (UniProt P13569); assay: Inhibition of CFTR (unknown origin) transfected in rat FRT cells at 25 uM by YFP fluorescence quenching assay; assay type: cell-based
Chain of Cystic fibrosis transmembrane conductance regulator (Homo sapiens) (P13569 whole entry, looked up): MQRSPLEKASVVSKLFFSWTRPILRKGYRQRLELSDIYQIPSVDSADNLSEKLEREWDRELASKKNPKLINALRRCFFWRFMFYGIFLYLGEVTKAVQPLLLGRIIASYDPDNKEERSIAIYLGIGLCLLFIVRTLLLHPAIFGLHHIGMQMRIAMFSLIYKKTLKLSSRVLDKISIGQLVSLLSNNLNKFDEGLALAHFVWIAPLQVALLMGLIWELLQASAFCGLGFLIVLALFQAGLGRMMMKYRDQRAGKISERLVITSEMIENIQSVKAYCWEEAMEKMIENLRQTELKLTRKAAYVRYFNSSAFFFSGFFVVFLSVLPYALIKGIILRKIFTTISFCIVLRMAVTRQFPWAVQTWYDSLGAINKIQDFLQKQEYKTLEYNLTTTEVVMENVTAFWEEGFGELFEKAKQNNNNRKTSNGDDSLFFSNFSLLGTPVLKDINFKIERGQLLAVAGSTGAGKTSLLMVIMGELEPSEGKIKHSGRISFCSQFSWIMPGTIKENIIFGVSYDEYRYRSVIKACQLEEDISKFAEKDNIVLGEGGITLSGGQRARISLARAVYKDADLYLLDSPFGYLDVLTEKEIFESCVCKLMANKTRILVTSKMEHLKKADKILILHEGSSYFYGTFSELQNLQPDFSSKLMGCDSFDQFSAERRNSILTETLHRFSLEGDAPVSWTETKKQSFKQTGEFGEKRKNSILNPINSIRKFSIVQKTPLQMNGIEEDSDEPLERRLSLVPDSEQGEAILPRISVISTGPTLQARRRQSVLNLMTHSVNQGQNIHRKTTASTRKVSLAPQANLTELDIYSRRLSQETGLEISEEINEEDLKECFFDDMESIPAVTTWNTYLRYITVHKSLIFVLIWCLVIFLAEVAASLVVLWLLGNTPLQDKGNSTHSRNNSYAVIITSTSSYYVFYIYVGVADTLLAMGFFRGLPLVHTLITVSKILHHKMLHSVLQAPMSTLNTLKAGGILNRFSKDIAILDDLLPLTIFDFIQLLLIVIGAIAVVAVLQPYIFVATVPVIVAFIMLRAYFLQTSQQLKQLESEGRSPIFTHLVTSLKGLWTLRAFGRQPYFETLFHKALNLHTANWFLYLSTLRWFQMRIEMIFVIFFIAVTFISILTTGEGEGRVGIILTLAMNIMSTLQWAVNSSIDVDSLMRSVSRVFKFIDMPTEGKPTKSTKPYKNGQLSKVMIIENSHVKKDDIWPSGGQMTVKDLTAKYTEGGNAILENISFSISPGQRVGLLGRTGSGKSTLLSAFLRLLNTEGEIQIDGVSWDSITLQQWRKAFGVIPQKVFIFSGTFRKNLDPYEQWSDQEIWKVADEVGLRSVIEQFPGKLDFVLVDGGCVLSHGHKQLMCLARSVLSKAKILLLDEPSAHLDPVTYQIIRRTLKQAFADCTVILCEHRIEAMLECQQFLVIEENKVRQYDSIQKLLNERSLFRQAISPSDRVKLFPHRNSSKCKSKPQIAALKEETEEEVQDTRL

[5] = target: T3, Solute carrier family 26 member 6 (Homo sapiens, UniProt Q9BXS9); assay: Inhibition of SLC26A6 (unknown origin) transfected in rat FRT cells by YFP fluorescence quenching assay; assay type: cell-based
T3 sequence (Q9BXS9 whole entry): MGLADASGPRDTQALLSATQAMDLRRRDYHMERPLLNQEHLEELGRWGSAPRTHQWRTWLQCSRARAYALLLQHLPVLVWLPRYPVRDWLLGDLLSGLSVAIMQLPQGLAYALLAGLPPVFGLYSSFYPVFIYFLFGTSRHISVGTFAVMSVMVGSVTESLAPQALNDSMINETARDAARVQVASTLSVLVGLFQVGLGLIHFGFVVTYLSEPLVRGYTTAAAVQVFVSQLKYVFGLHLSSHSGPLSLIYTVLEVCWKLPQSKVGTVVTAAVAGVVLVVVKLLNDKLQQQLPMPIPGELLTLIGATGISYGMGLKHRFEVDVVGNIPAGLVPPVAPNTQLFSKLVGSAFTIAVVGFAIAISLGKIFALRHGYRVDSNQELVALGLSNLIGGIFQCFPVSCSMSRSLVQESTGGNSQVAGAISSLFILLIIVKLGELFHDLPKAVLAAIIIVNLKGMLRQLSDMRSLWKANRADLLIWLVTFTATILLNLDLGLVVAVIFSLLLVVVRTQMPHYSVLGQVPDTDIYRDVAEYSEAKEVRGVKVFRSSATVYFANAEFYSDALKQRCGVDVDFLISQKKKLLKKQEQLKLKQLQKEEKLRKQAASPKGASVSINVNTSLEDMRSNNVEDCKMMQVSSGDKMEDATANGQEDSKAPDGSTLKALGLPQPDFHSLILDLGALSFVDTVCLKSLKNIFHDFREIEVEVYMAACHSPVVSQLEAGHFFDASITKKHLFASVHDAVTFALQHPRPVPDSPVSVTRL

[6] = Cytotoxicity against rat FRT cells assessed as cell viability at 10 uM measured after 24 hrs by Alamar blue dye based assay; assay type: toxicity
[7] = target: T4, Chloride anion exchanger (Homo sapiens) (UniProt P40879); assay: Inhibition of SLC26A3 (unknown origin) transfected in rat FRT cells at 25 uM by YFP fluorescence quenching assay; assay type: cell-based
T4 sequence (whole entry): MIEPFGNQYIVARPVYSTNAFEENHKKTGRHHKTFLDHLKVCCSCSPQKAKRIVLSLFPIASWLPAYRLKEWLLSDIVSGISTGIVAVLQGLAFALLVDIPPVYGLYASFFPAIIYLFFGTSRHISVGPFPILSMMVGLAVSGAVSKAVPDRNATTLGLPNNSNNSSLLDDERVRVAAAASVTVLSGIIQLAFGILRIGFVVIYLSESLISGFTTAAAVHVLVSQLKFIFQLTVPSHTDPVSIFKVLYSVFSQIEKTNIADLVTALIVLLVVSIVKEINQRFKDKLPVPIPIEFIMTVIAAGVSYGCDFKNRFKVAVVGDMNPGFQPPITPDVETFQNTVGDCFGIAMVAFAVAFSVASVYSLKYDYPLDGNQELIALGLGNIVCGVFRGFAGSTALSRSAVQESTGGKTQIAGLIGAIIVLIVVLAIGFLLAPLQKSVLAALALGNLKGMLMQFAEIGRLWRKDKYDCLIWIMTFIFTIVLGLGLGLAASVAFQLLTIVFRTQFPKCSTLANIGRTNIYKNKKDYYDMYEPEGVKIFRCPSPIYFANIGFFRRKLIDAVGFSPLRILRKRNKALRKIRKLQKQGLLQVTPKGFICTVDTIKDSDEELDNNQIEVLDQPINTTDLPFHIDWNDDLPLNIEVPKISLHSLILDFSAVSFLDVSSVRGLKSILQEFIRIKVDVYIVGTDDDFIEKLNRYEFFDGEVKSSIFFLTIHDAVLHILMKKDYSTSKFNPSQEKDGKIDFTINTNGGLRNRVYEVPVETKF

[8] = Selectivity index, ratio of IC50 for SLC26A6 (unknown origin) transfected in rat FRT cells to IC50 for Pendrin (unknown origin) transfected in rat FRT cells; assay type: cell-based
[9] = tested on: Mus musculus; assay: Effect on osmolality in mouse model at 10 mg/kg, ip measured for 3 hrs in presence of Furosemide; assay type: functional, organism-based
[10] = tested on: Mus musculus; assay: Potentiation of Furosemide-induced diuretic effect in mouse model at 10 mg/kg, ip measured for 3 hrs relative to control; assay type: functional
[11] = tested on: Mus musculus; assay: Effect on urine volume in mouse model at 10 mg/kg, ip measured for 3 hrs; assay type: functional, organism-based
[12] = tested on: Mus musculus; assay: Effect on osmolality in mouse model at 10 mg/kg, ip measured for 3 hrs; assay type: functional, organism-based
[13] = target: T1, Pendrin (Homo sapiens); assay: Inhibition of Pendrin (unknown origin) transfected in rat FRT cells at 25 uM by YFP fluorescence quenching assay relative to control; assay type: cell-based
[14] = target: T5, Solute carrier family 26 member 6 (Homo sapiens) (UniProt Q9BXS9); assay: Inhibition of SLC26A6 (unknown origin) transfected in rat FRT cells at 25 uM by YFP fluorescence quenching assay; assay type: cell-based
T5 sequence (whole entry): T3 sequence (Q9BXS9 whole entry)

SMILES: Cc1oc2ccc(OCc3ccc(Cl)cc3)cc2c1C(=O)O
IC50 [2]: 5 µM

SMILES: Cn1nc(COc2cccc(F)c2)c2c1CCN(C(=O)Nc1ccc(Cl)cc1)C2
IC50 [3]: 12.5 µM

SMILES: Cc1oc2ccc(OCc3cccc(Br)c3)cc2c1C(=O)O
IC50 [2]: 8.2 µM

SMILES: Cc1oc2ccc(OCc3ccccc3Cl)cc2c1C(=O)O
inhibition [4]: Active; Exhibited Minimal Effect
Activity [6]: Non-toxic
inhibition [7]: inactive
inhibition [13]: 100%
inhibition [14]: Active; Exhibited Minimal Inhibition

SMILES: Cc1oc2ccc(OCc3cccc(Cl)c3)cc2c1C(=O)O
IC50 [2]: 4.8 µM

Second part, led by results:

Ratio IC50 [1]: 3
IC50 [2]: 4.1 µM
SMILES: Cc1oc2ccc(OCc3ccc(Br)cc3)cc2c1C(=O)O

inhibition [4]: Active; Exhibited Minimal Effect
IC50 [5]: 10 µM
inhibition [7]: inactive
IC50 [2]: 0.48 µM
inhibition [13]: 100%
inhibition [14]: Active
SMILES: Cc1oc2ccc(OCc3cc(F)ccc3Cl)cc2c1C(=O)O
Activity [6]: Non-toxic
Ratio IC50 [8]: 20
Activity [9]: No effect
Activity [10]: 45%
Activity [11]: No effect
Activity [12]: No effect

IC50 [2]: 1.44 µM
SMILES: Cc1ccccc1COc1ccc2oc(C)c(C(=O)O)c2c1

IC50 [2]: 3.1 µM
SMILES: Cc1oc2ccc(OCc3ccccc3)cc2c1C(=O)O
